Values after ≈ are worked out from the molar mass of the structure shown. Read-outs that look alike come from different tables or passages of the source.
What was measured:
[1] = pH stability; format: physicochemical; conditions: 5.5 mM, buffer/ethanol 5:1 v/v; for remaining at 100 h, 5500 µM: read-out: Residual amounts (%) after 100 hours; for Residual amounts (%) after 100 hours: 5500 µM
Description: The chromanol glycoside obtained in Examples 1 to 5 [6-hydroxy-2,5,7,8-tetramethyl chroman-2-methyl-α-D-glucopyranoside represented by the aforementioned formula (4)], the chromanol glycoside obtained in Examples 6 to 8 [6-hydroxy-2,5,7,8-tetramethyl chroman-2-ethyl-α-D-glucopyranoside represented by the aforementioned formula (7)], the chromanol glycoside obtained in Examples 4 and 5 [6-hydroxy-2,5,7,8-tetramethyl chroman-2-methyl-α-D-maltopyranoside represented by the aforementioned formula (5)], and the chromanol glycoside obtained in Example 8 [6 -hydroxy-2,5,7,8-tetramethyl chroman-2-ethyl-α-D-maltopyranoside represented by the aforementioned formula (8)] were tested for pH stability. This test was specifically performed by incubating a 5.5 mM chromanol glycoside solution (buffer/ethanol, 5:1 v/v) having a varying pH value. At regular intervals, aliquots of the reaction mixture were withdrawn and the residual amounts of chromanol glycoside were measured by HPC. For the purpose of comparison, the 2-substituted alcohols represented by the aforementioned formulas (3) and (6) and Trolox were similarly tested.
It is clearly noted from the test results that the conversion of 2-substituted alcohols into respective glycosides enhances pH stability. The buffer used for the test were 100 mM acetate buffer of pH 5.5, 100 mM phosphate buffer of pH 7.0, and 100 mM tris-HCl buffer of pH 8,5.

[2] = background statement, in words; cited from earlier work
[3] = solubility in water; format: physicochemical; conditions: 25 °C, constant stirring at 200 rpm, HPLC; for solubility: water, read-out: solubility in water (amounts of sample dissolved in 1 ml of water)
Description: The chromanol glycoside obtained in Examples 1 to 5 [6-hydroxy-2,5,7,8-tetramethyl chroman-2-methyl-α-D-glucopyranoside represented by the aforementioned formula (4)], the chromanol glycoside obtained in Examples 6 to 8 [6-hydroxy-2,5,7,8-tetramethyl chroman-2-ethyl-α-D-glucopyranoside represented by the aforementioned formula (7)], the chromanol glycoside obtained in Examples 4 and 5 [6-hydroxy-2,5,7,8-tetramethyl chroman-2-methyl-α-D-maltopyranoside represented by the aforementioned formula (5)], and the chromanol glycoside obtained in Example 8 [6-hydroxy-2,5,7,8-tetramethyl chroman-2-ethyl-α-D-maltopyranoside represented by the aforementioned formula (8)] were tested for solubility in water. Specifically, this test was performed by adding an excess amount of a given chromanol glycoside to 1 ml of water. The reaction mixture was incubated at 25° C. for […] with constant stirring at 200 rpm. After 100 hours, the reaction mixture was transferred into a membrane filter (produced by Nihon Millipore Ltd. and marketed under trademark designation of "HPLC Sample Prep C02-LG") and insoluble substances were removed by centrifugation (4,100×g, 10 minutes, 20° C.). The filtered solution was subjected to HPLC to determine the amount of chromanol glycoside remaining in the aqueous solution. For the purpose of comparison, the 2-substituted alcohols represented by the aforementioned formulas (3) and […] and Trolox were similarly tested.
The numerals given in the tables represent the amounts of sample dissolved in 1 ml of water.

[4] = thermal stability; format: physicochemical; conditions: 5 mM solution in water/ethanol 1:3 v/v, read-out: Residual amounts (%) after 100 hours
Description: The chromanol glycoside obtained in Examples 1 to 5 [6-hydroxy-2,5,7,8-tetramethyl chroman-2-methyl-α-D-glucopyranoside represented by the aforementioned formula (4)], the chromanol glycoside obtained in Examples 6 to 8 [6-hydroxy-2,5,7,8-tetramethyl chroman-2-ethyl-α-D-glucopyranoside represented by the aforementioned formula (7)], the chromanol glycoside obtained in Examples 4 and 5 [6-hydroxy-2,5,7,8-tetramethyl chroman-2methyl-α-D-maltopyranoside represented by the aforementioned formula (5)], and the chromanol glycoside obtained in Example 8 [6-hydroxy-2,5,7,8-tetramethyl chroman-2-ethyl-α-D-maltopyranoside represented by the aforementioned formula (8)]were tested for thermal stability. Specifically, this test was performed by incubating a 5 mM chromanol glycoside solution (water/ethanol, 1:3 v/v) under varying temperature conditions. At regular intervals, aliquots of the reaction mixture were withdrawn and the residual amounts of chromanol glycoside were measured by HPLC. For the purpose of comparison, the 2-substituted alcohols represented by the aforementioned formulas (3) and (6), α-tocopherol, and Trolox were similarly tested.
It is clearly noted from these test results that the conversion of 2-substituted alcohols into corresponding glycosides enhances thermal stability.

[5] = hydroperoxidation of methyl linoleate via radical chain reaction in hexane/isopropyl alcohol; format: biochemical; conditions: 0.1 μmol antioxidant in 1.1 ml hexane/isopropyl alcohol 1:1; 37 °C; oil-soluble radical generator; in words
Description: Antioxidant activity on the chromanol glycoside obtained in Examples 1 to 5 [6-hydroxy-2,5,7,8-tetramethyl chroman-2-methyl-α-D-glucopyranoside represented by the aforementioned formula (4)], the chromanol glycoside obtained in Examples 6 to 8 [6-hydroxy-2,5,7,8-tetramethyl chroman-2-ethyl-α-D-glucopyranoside represented by the aforementioned formula (7)], the chromanol glycoside obtained in Examples 4 and 5 [6-hydroxy-2,5,7,8-tetramethyl chroman-2-methyl-α-D-maltopyranoside represented by the aforementioned formula (5)], and the chromanol glycoside obtained in Example 8 [6-hydroxy-2,5,7,8-tetramethyl chroman-2-ethyl-α-D-maltopyranoside represented by the aforementioned formula (8)] was investigated by measuring the hydroperoxidation of methyl linoleate via radical chain reaction. Specifically, this test was performed by incubating 132 μmol of methyl linoleate, 16.5 μmol of an oil-soluble radical generator [2,2'-azo-bis(2,4-dimethyl valeronitrile)], 0.1 μmol of antioxidant in 1.1 ml of a hexane/isopropyl alcohol (1:1 v/v), and the mixture was incubated at 37° C. At regular intervals, aliquots of the reaction mixture were withdrawn and the amount of methyl linoleate hydroperoxides were measured by HPLC. […] EXAMPLE 10

[6] = antioxidant activity using liposomal membranes (phosphatidylcholine hydroperoxides); format: biochemical; conditions: 0.1 μmol antioxidant in 1.1 ml 10 mM tris-HCl buffer pH 7.4; water-soluble radical generator; in words
Description: Antioxidant activity on the chromanol glycoside obtained in Examples 1 to 5 [6-hydroxy-2,5,7,8-tetramethyl chroman-2-methyl-α-D-glucopyranoside represented by the aforementioned formula (4)[, the chromanol glycoside obtained in Examples 6 to 8 [6-hydroxy-2,5,7,8-tetramethyl chroman-2-ethyl-α-D-glucopyranoside represented by the aforementioned formula (7)], the chromanol glycoside obtained in Examples 4 and 5 [6-hydroxy-2,5,7,8-tetramethyl chroman-2-methyl-α-D-maltopyranoside represented by the aforementioned formula (5)], and the chromanol glycoside obtained in Example 8 [6-hydroxy-2,5,7,8-tetramethyl chroman-2-ethyl-α-D-malto-pyranoside represented by the aforementioned formula (8)] was investigated by using a liposonal membranes. Specifically, this test was performed by adjusting a reaction solution consisting of 5.5 μmol of a multilameller liposomes of egg yolk phosphatidylcholine, 16.5 μmol of a water-soluble radical generator [2,2'-azo-bis(2-amidinopropane) dihydrochloride], and 0.1 μmol of antioxidant in 1.1 ml of a 10 mM tris-HCl buffer (pH 7.4). At regular intervals, aliquots of the reaction mixture were withdrawn and the amount of phosphatidylcholine hydroperoxides were measured by HPLC.

[7] = acetate buffer/ethanol 5:1, pH 5.5, pH 5.5 (100 mM acetate buffer)
[8] = phosphate buffer/ethanol 5:1, pH 7, pH 7.0 (100 mM phosphate buffer)
[9] = tris-hcl buffer/ethanol 5:1, pH 8.5, pH 8.5 (100 mM tris-HCl buffer)

Cc1c(C)c2c(c(C)c1O)CCC(C)(C(=O)O)O2 (stereo not shown) [Trolox, 6-hydroxy-2,5,7,8-tetramethyl chroman-2-carboxylic acid, reference compound]
remaining at 100 h, 5500 µM [1, 7]: 75% | remaining at 100 h, 5500 µM [1, 8]: 35% | remaining at 100 h, 5500 µM [1, 9]: 13% | solubility in water [2]: extremely low solubility in water | solubility [3]: 0.2 mg/mL (≈ 799 µM)

Cc1c(C)c2c(c(C)c1O)CCC(C)(CCCC(C)CCCC(C)CCCC(C)C)O2 (stereo not drawn) [α-Tocopherol, reference compound]
remaining at 100 h, 5000 µM ([4]; water/ethanol 1:3, 50 °C): 85% | remaining at 100 h, 5000 µM ([4]; water/ethanol 1:3, 60 °C): 79% | remaining at 100 h, 5000 µM ([4]; water/ethanol 1:3, 70 °C): 30%

Cc1c(C)c2c(c(C)c1O)CCC(C)(CO[C@H]1O[C@H](CO)[C@@H](O)[C@H](O)[C@H]1O)O2 (stereo partly drawn) [formula (4), 6-hydroxy-2,5,7,8-tetramethyl chroman-2-methyl-α-D-glucopyranoside]
antioxidant activity (methyl linoleate hydroperoxides) [5]: excel 3,5-tert-butyl-4-hydroxytoluene and equal α-tocopherol | remaining at 100 h, 5500 µM [1, 7]: 91% | Residual amounts (%) after 100 hours ([1]; pH 5.5 (100 mM acetate buffer), listed as formula (4) of Example 2, 6000 min): 85% | Residual amounts (%) after 100 hours ([1]; pH 5.5 (100 mM acetate buffer), listed as formula (4) of Example 3, 6000 min): 89% | Residual amounts (%) after 100 hours ([1]; pH 5.5 (100 mM acetate buffer), listed as formula (4) of Example 4, 6000 min): 84% | Residual amounts (%) after 100 hours ([1]; pH 5.5 (100 mM acetate buffer), listed as formula (4) of Example 5, 6000 min): 88% | Residual amounts (%) after 100 hours ([1]; pH 7.0 (100 mM phosphate buffer), listed as formula (4) of Example 2, 6000 min): 42% | Residual amounts (%) after 100 hours ([1]; pH 7.0 (100 mM phosphate buffer), listed as formula (4) of Example 3, 6000 min): 43% | Residual amounts (%) after 100 hours ([1]; pH 7.0 (100 mM phosphate buffer), listed as formula (4) of Example 4, 6000 min): 44% | Residual amounts (%) after 100 hours ([1]; pH 7.0 (100 mM phosphate buffer), listed as formula (4) of Example 5, 6000 min): 43% | Residual amounts (%) after 100 hours ([1]; pH 8.5 (100 mM tris-HCl buffer), listed as formula (4) of Example 2, 6000 min): 19% | Residual amounts (%) after 100 hours ([1]; pH 8.5 (100 mM tris-HCl buffer), listed as formula (4) of Example 4, 6000 min): 19% | Residual amounts (%) after 100 hours ([1]; pH 8.5 (100 mM tris-HCl buffer), listed as formula (4) of Example 5, 6000 min): 21% | remaining at 100 h, 5500 µM [1, 8]: 41% | remaining at 100 h, 5500 µM [1, 9]: 20% | antioxidant activity (phosphatidylcholine hydroperoxides) [6]: more effective antioxidants than ascorbic acid | solubility in water (amounts of sample dissolved in 1 ml of water) ([3]; listed as formula (4) of Example 3): About 1000 mg/ml | solubility in water (amounts of sample dissolved in 1 ml of water) ([3]; listed as formula (4) of Example 4): About 1000 mg/ml | solubility in water (amounts of sample dissolved in 1 ml of water) ([3]; listed as formula (4) of Example 5): About 1000 mg/ml | solubility [3]: ~1000 mg/mL

— patent US5478812A, “Chromanol glycoside and method for production thereof” (CCI Corporation, priority 1993, dated 1995)
